According to PubChem BioAssay (NCI):
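At the GI50, growth is halved. Definition used: TGI = concentration required for complete inhibition of growth.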

Assays:
Test in all cases: NCI-60 cell line screen, 384-well format
MALME-3M melanoma = tested on: MALME-3M melanoma
NCI-H522 lung = tested on: NCI-H522 lung
LOX IMVI melanoma = tested on: LOX IMVI melanoma
ACHN renal = tested on: ACHN renal
SK-OV-3 ovarian = tested on: SK-OV-3 ovarian
T-47D breast = tested on: T-47D breast
HOP-92 NSCLC = tested on: HOP-92 NSCLC
TK-10 renal = tested on: TK-10 renal
MDA-MB-435 melanoma = tested on: MDA-MB-435 melanoma
A498 renal = tested on: A498 renal
NCI-H226 lung = tested on: NCI-H226 lung
UACC-62 melanoma = tested on: UACC-62 melanoma
SK-MEL-5 melanoma = tested on: SK-MEL-5 melanoma
SK-MEL-28 melanoma = tested on: SK-MEL-28 melanoma
NCI-H23 lung = tested on: NCI-H23 lung
IGROV1 ovarian = tested on: IGROV1 ovarian
HS 578T breast = tested on: HS 578T breast
PC-3 prostate = tested on: PC-3 prostate
BT-549 breast = tested on: BT-549 breast
DU-145 prostate = tested on: DU-145 prostate
SF-268 CNS = tested on: SF-268 CNS
RPMI-8226 leukemia = tested on: RPMI-8226 leukemia
UO-31 renal = tested on: UO-31 renal
OVCAR-4 ovarian = tested on: OVCAR-4 ovarian
MCF7 breast = tested on: MCF7 breast
MDA-MB-231 breast = tested on: MDA-MB-231 breast
NCI-H322M lung = tested on: NCI-H322M lung
A549 NSCLC = tested on: A549 NSCLC
K-562 leukemia = tested on: K-562 leukemia
HCC-2998 colon = tested on: HCC-2998 colon
OVCAR-3 ovarian = tested on: OVCAR-3 ovarian
HT29 colon = tested on: HT29 colon
KM12 colon = tested on: KM12 colon
CCRF-CEM leukemia = tested on: CCRF-CEM leukemia
HCT-15 colon = tested on: HCT-15 colon
RXF 393 renal = tested on: RXF 393 renal
EKVX NSCLC = tested on: EKVX NSCLC
HL-60(TB) leukemia = tested on: HL-60(TB) leukemia
SNB-19 CNS = tested on: SNB-19 CNS
SN12C renal = tested on: SN12C renal
NCI/ADR-RES ovarian = tested on: NCI/ADR-RES ovarian
OVCAR-5 ovarian = tested on: OVCAR-5 ovarian
SR leukemia = tested on: SR leukemia
HOP-62 NSCLC = tested on: HOP-62 NSCLC
SNB-75 CNS = tested on: SNB-75 CNS
COLO 205 colon = tested on: COLO 205 colon
UACC-257 melanoma = tested on: UACC-257 melanoma
SF-295 CNS = tested on: SF-295 CNS
OVCAR-8 ovarian = tested on: OVCAR-8 ovarian
CAKI-1 renal = tested on: CAKI-1 renal
MDA-MB-468 breast = tested on: MDA-MB-468 breast
786-0 renal = tested on: 786-0 renal
SF-539 CNS = tested on: SF-539 CNS
MOLT-4 leukemia = tested on: MOLT-4 leukemia
M14 melanoma = tested on: M14 melanoma
NCI-H460 NSCLC = tested on: NCI-H460 NSCLC
SW-620 colon = tested on: SW-620 colon

Compound `CCOCC1(COCC)CCC(c2[nH]ncc2CN(C)CCNC)CC1` has a GI50 (MALME-3M melanoma) of 8.61 µM, a TGI (MALME-3M melanoma) of 36.3 µM and a GI50 (NCI-H522 lung) of 96.8 µM. It also gave a TGI (NCI-H522 lung) greater than 100 µM, a GI50 (LOX IMVI melanoma) of 29.6 µM and a TGI (LOX IMVI melanoma) greater than 100 µM. For the same compound, the GI50 (ACHN renal) was 2.03 µM, the TGI (ACHN renal) was greater than 100 µM and the GI50 (SK-OV-3 ovarian) was 47.1 µM. It also gave a TGI (SK-OV-3 ovarian) greater than 100 µM, a GI50 (T-47D breast) of 27.3 µM and a TGI (T-47D breast) greater than 100 µM. The GI50 (HOP-92 NSCLC) was 35.2 µM, the TGI (HOP-92 NSCLC) was greater than 100 µM and the GI50 (TK-10 renal) was 43.4 µM. The TGI (TK-10 renal) was greater than 100 µM, the GI50 (MDA-MB-435 melanoma) was 58.7 µM and the TGI (MDA-MB-435 melanoma) was greater than 100 µM. For the same compound, the GI50 (A498 renal) was 5.94 µM, the TGI (A498 renal) was greater than 100 µM and the GI50 (NCI-H226 lung) was greater than 100 µM. For the same compound, the TGI (NCI-H226 lung) was greater than 100 µM, the GI50 (UACC-62 melanoma) was 12.6 µM and the TGI (UACC-62 melanoma) was 33.3 µM. For the same compound, the GI50 (SK-MEL-5 melanoma) was 11.5 µM, the TGI (SK-MEL-5 melanoma) was 34.5 µM and the GI50 (SK-MEL-28 melanoma) was 11.3 µM. The TGI (SK-MEL-28 melanoma) was 29.3 µM, the GI50 (NCI-H23 lung) was greater than 100 µM and the TGI (NCI-H23 lung) was greater than 100 µM. The GI50 (IGROV1 ovarian) was 2.77 µM, the TGI (IGROV1 ovarian) was greater than 100 µM and the GI50 (HS 578T breast) was greater than 100 µM. It also gave a TGI (HS 578T breast) greater than 100 µM, a GI50 (PC-3 prostate) greater than 100 µM and a TGI (PC-3 prostate) greater than 100 µM. It also gave a GI50 (BT-549 breast) of 32.7 µM, a TGI (BT-549 breast) greater than 100 µM and a GI50 (DU-145 prostate) greater than 100 µM. For the same compound, the TGI (DU-145 prostate) was greater than 100 µM, the GI50 (SF-268 CNS) was greater than 100 µM and the TGI (SF-268 CNS) was greater than 100 µM. The GI50 (RPMI-8226 leukemia) was 2.52 µM, the TGI (RPMI-8226 leukemia) was 57.4 µM and the GI50 (UO-31 renal) was greater than 100 µM. The TGI (UO-31 renal) was greater than 100 µM, the GI50 (OVCAR-4 ovarian) was greater than 100 µM and the TGI (OVCAR-4 ovarian) was greater than 100 µM. It also gave a GI50 (MCF7 breast) of 29.9 µM, a TGI (MCF7 breast) greater than 100 µM and a GI50 (MDA-MB-231 breast) of 42.5 µM. The TGI (MDA-MB-231 breast) was greater than 100 µM, the GI50 (NCI-H322M lung) was greater than 100 µM and the TGI (NCI-H322M lung) was greater than 100 µM. It also gave a GI50 (A549 NSCLC) of 18.1 µM, a TGI (A549 NSCLC) greater than 100 µM and a GI50 (K-562 leukemia) of 4.11 µM. For the same compound, the TGI (K-562 leukemia) was greater than 100 µM, the GI50 (HCC-2998 colon) was 16.3 µM and the TGI (HCC-2998 colon) was 38.3 µM. The GI50 (OVCAR-3 ovarian) was 1.75 µM, the TGI (OVCAR-3 ovarian) was greater than 100 µM and the GI50 (HT29 colon) was 10.7 µM. The TGI (HT29 colon) was 35.8 µM, the GI50 (KM12 colon) was greater than 100 µM and the TGI (KM12 colon) was greater than 100 µM. It also gave a GI50 (CCRF-CEM leukemia) of 53.3 µM, a TGI (CCRF-CEM leukemia) greater than 100 µM and a GI50 (HCT-15 colon) of 18.6 µM. It also gave a TGI (HCT-15 colon) greater than 100 µM, a GI50 (RXF 393 renal) greater than 100 µM and a TGI (RXF 393 renal) greater than 100 µM. For the same compound, the GI50 (EKVX NSCLC) was greater than 100 µM, the TGI (EKVX NSCLC) was greater than 100 µM and the GI50 (HL-60(TB) leukemia) was 0.123 µM. For the same compound, the TGI (HL-60(TB) leukemia) was 2.68 µM, the GI50 (SNB-19 CNS) was greater than 100 µM and the TGI (SNB-19 CNS) was greater than 100 µM. For the same compound, the GI50 (SN12C renal) was 64.8 µM, the TGI (SN12C renal) was greater than 100 µM and the GI50 (NCI/ADR-RES ovarian) was greater than 100 µM. The TGI (NCI/ADR-RES ovarian) was greater than 100 µM, the GI50 (OVCAR-5 ovarian) was 28.5 µM and the TGI (OVCAR-5 ovarian) was greater than 100 µM. For the same compound, the GI50 (SR leukemia) was 0.386 µM, the TGI (SR leukemia) was 9.85 µM and the GI50 (HOP-62 NSCLC) was 71 µM. For the same compound, the TGI (HOP-62 NSCLC) was greater than 100 µM, the GI50 (SNB-75 CNS) was greater than 100 µM and the TGI (SNB-75 CNS) was greater than 100 µM. The GI50 (COLO 205 colon) was 20.5 µM, the TGI (COLO 205 colon) was greater than 100 µM and the GI50 (UACC-257 melanoma) was 14.8 µM. The TGI (UACC-257 melanoma) was 30.2 µM, the GI50 (SF-295 CNS) was 6.65 µM and the TGI (SF-295 CNS) was greater than 100 µM. The GI50 (OVCAR-8 ovarian) was greater than 100 µM, the TGI (OVCAR-8 ovarian) was greater than 100 µM and the GI50 (CAKI-1 renal) was 3.69 µM. For the same compound, the TGI (CAKI-1 renal) was greater than 100 µM, the GI50 (MDA-MB-468 breast) was 1.81 µM and the TGI (MDA-MB-468 breast) was 35.6 µM. The GI50 ([…]-0 renal) was 10.4 µM, the TGI (786-0 renal) was greater than 100 µM and the GI50 (SF-539 CNS) was 90.4 µM. The TGI (SF-539 CNS) was greater than 100 µM, the GI50 (MOLT-4 leukemia) was 20 µM and the TGI (MOLT-4 leukemia) was greater than 100 µM. The GI50 (M14 melanoma) was 17.6 µM, the TGI (M14 melanoma) was 44.7 µM and the GI50 (NCI-H460 NSCLC) was 8.56 µM. It also gave a TGI (NCI-H460 NSCLC) greater than 100 µM, a GI50 (SW-620 colon) greater than 100 µM and a TGI (SW-620 colon) greater than 100 µM.
